The record followed here is PubChem BioAssay (NCI).

Values joined by “and” are separate entries in the source; they are usually repeats but may differ in a detail not shown here. Equal values may be shown once.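 Cells were grown in 96-well plates and exposed to each compound for 48 hours at five concentrations; endpoints were interpolated linearly between bracketing concentrations, or set to the highest concentration if not reached. Abbreviation: GI50, concentration required for 50% inhibition of growth. The concentration for full growth arrest is given as TGI.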

Some test systems named below: T-47D breast; UO-31 renal; RXF 393 renal; COLO 205 colon; MCF7 breast; HCT-116 colon; A549 NSCLC; BT-549 breast; SNB-75 CNS; SN12C renal.
What all share (test): DTP human tumour cell line panel, 48 h

Usually GI50 stands for the concentration at which growth is held to half of that of the control. By TGI is commonly meant the concentration at which net growth stops. Higher therefore signals less potent growth arrest. Regarding `O=C(Nc1cccc(-n2cc(-c3ccncc3)c(-c3cc(O)cc(Cl)c3)n2)c1)c1cc(C(F)(F)F)cc(C(F)(F)F)c1`, the GI50 is 2.99 µM with T-47D breast; 2.5 µM in the test with UO-31 renal; 1.69 µM in the test on RXF 393 renal; 2.32 µM in the test with COLO 205 colon; 2.86 µM with MCF7 breast; 3.23 µM with HCT-116 colon. In addition, the GI50 in the test on A549 NSCLC is 2.62 µM; in the test on BT-549 breast, 4.65 µM; in the test on SNB-75 CNS, 2.8 µM; in the test on SN12C renal it was 4.77 µM. Besides, the TGI with T-47D breast is 94.5 µM; with UO-31 renal, greater than 100 µM; in the test on RXF 393 renal, 4.35 µM; with COLO 205 colon, 5.74 µM; in the test on MCF7 breast, greater than 100 µM; with HCT-116 colon it was greater than 100 µM. Besides, the TGI with A549 NSCLC was greater than 100 µM; in the test on BT-549 breast, 46.6 µM; in the test with SNB-75 CNS, greater than 100 µM; in the test on SN12C renal it was greater than 100 µM.
Regarding `Cc1cc(N=Nc2ccccc2C)ccc1N`, the GI50 is 13.3 µM with T-47D breast; 0.874 µM in the test with UO-31 renal; 15.1 µM with RXF 393 renal; 16.5 µM in the test with MCF7 breast; 13.2 µM in the test on HCT-116 colon; 3.42 µM in the test with A549 NSCLC. Besides, the GI50 in the test with SNB-75 CNS is 4.1 µM; with SN12C renal, 2.86 µM. For the same compound, the TGI in the test with T-47D breast is 78.5 µM; with UO-31 renal, 13.2 µM and 11.3 µM; with RXF 393 renal it was 22.9 µM and 33.7 µM; in the test on COLO 205 colon, 33.6 µM and 32.4 µM; with MCF7 breast, 36.2 µM and 43.6 µM; in the test on HCT-116 colon, 29.5 µM and 27.3 µM. Further, the TGI in the test with A549 NSCLC was 17.1 µM and 20.3 µM; in the test with BT-549 breast it was 23.2 µM; in the test on SNB-75 CNS, 28.1 µM and 31.9 µM; with SN12C renal it was 27.4 µM and 16.3 µM.
Take `C(=N/N(Cc1ccccc1)Cc1ccccc1)/c1ccccc1`: the GI50 with T-47D breast was 72.4 µM; with UO-31 renal, greater than 100 µM; in the test with RXF 393 renal it was 66.3 µM; with COLO 205 colon, greater than 100 µM; with MCF7 breast, 42.9 µM; in the test on HCT-116 colon it was 26.1 µM. The GI50 with A549 NSCLC, with BT-549 breast, in the test with SNB-75 CNS and with SN12C renal was greater than 100 µM throughout. Also, the TGI in the test with T-47D breast, in the test with UO-31 renal, in the test with RXF 393 renal, in the test with COLO 205 colon, in the test on MCF7 breast and with HCT-116 colon was greater than 100 µM in each case. Further, the TGI in the test on A549 NSCLC, in the test on BT-549 breast, with SNB-75 CNS and in the test with SN12C renal was greater than 100 µM in each case.
Consider `CC1OC(OC2C(O)CC(OC3C(O)CC(OC4CCC5(C)C(CCC6C5CC(O)C5(C)C(C7=CC(=O)OC7)CCC65O)C4)OC3C)OC2C)CC(O)C1O` (stereo unspecified), for which the 50% growth inhibitory concentration (GI50) is 0.0538 µM in the test with T-47D breast; 0.0377 µM in the test on UO-31 renal; 0.0293 µM with RXF 393 renal; 0.131 µM in the test on COLO 205 colon; 0.0436 µM with MCF7 breast; 0.0331 µM with HCT-116 colon. Further, the GI50 in the test on A549 NSCLC is 0.0187 µM; in the test with BT-549 breast it was 0.0309 µM; with SNB-75 CNS, 0.0765 µM; in the test with SN12C renal, 0.0391 µM. Moreover, the TGI came to 0.292 µM in the test on T-47D breast; 0.148 µM with UO-31 renal; 0.0994 µM in the test on RXF 393 renal; 0.272 µM with COLO 205 colon; 0.196 µM with MCF7 breast; 0.115 µM with HCT-116 colon. Also, the total growth inhibition concentration (TGI) with A549 NSCLC was 0.0356 µM; in the test with BT-549 breast, 0.101 µM; in the test with SNB-75 CNS it was 0.241 µM; in the test with SN12C renal, 0.248 µM.
As for `COC(=O)c1cncc(/C=C/c2c(C)cc(O)cc2C)c1`, the GI50 in the test with T-47D breast is 11 µM; with UO-31 renal, 14.5 µM; in the test on RXF 393 renal, 5.97 µM; with COLO 205 colon, greater than 22.4 µM; in the test with MCF7 breast, 11.5 µM; in the test on HCT-116 colon, 14.2 µM. For the same compound, the GI50 is greater than 17.5 µM in the test with A549 NSCLC, greater than 20.1 µM in the test with BT-549 breast, greater than 9.93 µM in the test with SNB-75 CNS and 11.2 µM in the test on SN12C renal. In addition, the TGI in the test on T-47D breast is greater than 22.2 µM; in the test with UO-31 renal it was greater than 25 µM; in the test with RXF 393 renal, 16.7 µM; in the test on COLO 205 colon, greater than 25 µM; in the test with MCF7 breast, greater than 18.7 µM; with HCT-116 colon, greater than 25 µM. The total growth inhibition concentration (TGI) was greater than 25 µM with A549 NSCLC, greater than 25 µM in the test on BT-549 breast, greater than 18.8 µM in the test with SNB-75 CNS and greater than 25 µM in the test with SN12C renal.
For the compound `OC(C#Cc1ccccc1)(c1ccccc1)c1ccccc1`, the TGI was 78.1 µM with T-47D breast; greater than 100 µM in the test with UO-31 renal; greater than 100 µM in the test on COLO 205 colon; 45.7 µM in the test on MCF7 breast; greater than 100 µM in the test on HCT-116 colon; 52.9 µM in the test with A549 NSCLC. The TGI in the test on BT-549 breast, with SNB-75 CNS and in the test with SN12C renal was greater than 100 µM in each case.
With `C/C(=C\c1cnc(C)s1)[C@@H]1C[C@@H]2O[C@@H]2CCC[C@H](C)[C@H](O)[C@@H](C)C(=O)C(C)(C)[C@@H](O)CC(=O)O1`, the GI50 with T-47D breast is 0.0171 µM; in the test with UO-31 renal it was less than 0.0105 µM; in the test with RXF 393 renal, less than 0.01 µM; with COLO 205 colon, less than 0.01 µM; in the test with MCF7 breast, less than 0.01 µM; in the test with HCT-116 colon, less than 0.01 µM. In addition, the GI50 in the test on A549 NSCLC, in the test with BT-549 breast, in the test with SNB-75 CNS and with SN12C renal was less than 0.01 µM in each case. The TGI is greater than 100 µM with T-47D breast; greater than 100 µM with UO-31 renal; greater than 100 µM in the test on RXF 393 renal; 0.0304 µM in the test on COLO 205 colon; greater than 100 µM with MCF7 breast; greater than 100 µM in the test on HCT-116 colon. In addition, the TGI with A549 NSCLC, in the test with BT-549 breast and in the test with SN12C renal was greater than 100 µM each time.
